For this test, the target named is T1, TRABID(245-697) (Homo sapiens, UniProt Q9UGI0).
T1 construct: 10 nM TRABID(245-697) and 25 nM Ub-Rh110MP (UbiQ, UbiQ-126) final concentrations
T1 sequence (Q9UGI0 245-697): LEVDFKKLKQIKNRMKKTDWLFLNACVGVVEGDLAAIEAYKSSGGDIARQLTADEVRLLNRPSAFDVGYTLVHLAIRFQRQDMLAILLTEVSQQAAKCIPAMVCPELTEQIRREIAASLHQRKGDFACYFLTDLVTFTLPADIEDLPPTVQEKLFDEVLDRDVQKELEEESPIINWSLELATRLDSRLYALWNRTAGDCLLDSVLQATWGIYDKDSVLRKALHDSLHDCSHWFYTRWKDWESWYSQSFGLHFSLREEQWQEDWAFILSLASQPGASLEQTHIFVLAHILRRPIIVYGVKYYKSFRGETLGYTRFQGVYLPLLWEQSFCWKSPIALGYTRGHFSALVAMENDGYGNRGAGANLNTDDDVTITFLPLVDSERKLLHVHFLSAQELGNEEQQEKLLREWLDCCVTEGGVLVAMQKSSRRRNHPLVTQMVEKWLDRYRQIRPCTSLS
Nature of the test: TRABID inhibition biochemical assay (Ub-Rh110MP fluorescence). Conditions: 10 nM TRABID(245-697), 25 nM Ub-Rh110MP, 30 minutes preincubation with compound, 10-point 3-fold series 26.6 μM to 1.35 nM. The method, then:
TRABID enzymatic assays were performed in a final volume of 6 μL in buffer containing 20 mM Tris-HCl pH 8.0, (Corning 46-031-CM), and 1 mM GSH (Sigma, G4251), 0.03% BGG (Sigma, G7516), and 0.01% Triton X-100 (Sigma, 93443). Test compounds were serially diluted in DMSO (Sigma, G7516) to obtain 10-point, 3-fold series. Nanoliter quantities were pre-dispensed into 1536 assay plates (Corning, 9110BC) for the concentration response range, 26.6 μM to 1.35 nM. 3 μL of 2× enzyme was added to the assay plates, preincubated with compound for 30 minutes and then 3 μL of 2× substrate was added to initiate the reaction (10 nM TRABID(245-697) and 25 nM Ub-Rh110MP (UbiQ, UbiQ-126) final concentrations). Enzyme and substrate concentrations and incubation times were optimized for the maximal signal-to-background while maintaining linear initial velocity conditions at a fixed substrate concentration below Km.
Fluorescence signal was measured on an EnVision Plate Reader (PerkinElmer) equipped with 485 nm excitation filter and 535 nm emission filters.
Rates were calculated by: rate=((final FLU−initial FLU)/600 seconds) where final FLU=fluorescence at time 10 minutes, initial FLU=fluorescence at time 0 minutes and 600=duration of reaction in seconds.
Data were reported as percent inhibition compared with control wells based on the following equation: % inh=[…] where rate=measured rate of fluorescence generated during assay, AveLow=average rate of no enzyme control (n=32), and AveHigh=average rate of DMSO control (n=32).
IC50 values were determined by curve fitting of the standard 4 parameter logistic fitting algorithm included in the Activity Base software package (IDBS) using XE Designer equation Model 205. Data were fitted using the Levenburg Marquardt algorithm.

On to `CN(C(=O)c1cnc(-c2ccccc2)s1)[C@H]1C[C@H](CNC#N)C1` (single isomer, unassigned) [Compound 20, N-methyl-2-phenyl-N-[(trans)-3-[(cyanoamino)methyl]cyclobutyl]-1,3-thiazole-5-carboxamide], for which the IC50 turned out to be 2950 nM.

Regarding `N#CN[C@H]1C[C@]2(CCN(C(=O)c3cc(-c4ccccn4)no3)C2)C1` (single isomer, unassigned) [Compound 45, {[(2r,4s)-6-[3-(pyridin-2-yl)-1,2-oxazole-5-carbonyl]-6-azaspiro[3.4]octan-2-yl]amino}formonitrile], the IC50 stood at 8100 nM.

Take `N#CNC[C@@H]1CCN(C(=O)c2csc(-c3ccccc3Oc3ccccc3)n2)C1` [Compound 1, cyano([[(3S)-1-[2-(2-phenoxyphenyl)-1,3-thiazole-4-carbonyl]pyrrolidin-3-yl]methyl])amine]: the IC50 was determined as 140 nM. As for `N#CNC[C@H]1CCN(C(=O)c2csc(-c3ccccc3Oc3ccccc3)n2)C1` [Compound 2, cyano([[(3R)-1-[2-(2-phenoxyphenyl)-1,3-thiazole-4-carbonyl]pyrrolidin-3-yl]methyl])amine], the figure is 439 nM. As for `COc1cccc(-c2ncc(NC(=O)CCCNC#N)s2)c1` [Compound 3, 4-(cyanoamino)-N-[2-(3-methoxyphenyl)-1,3-thiazol-5-yl]butanamide], the IC50 was 743 nM. As for `COc1cccc(-c2ncc(NC(=O)[C@H](C)CCNC#N)s2)c1` [Compound 4, (2R)-4-(cyanoamino)-N-[2-(3-methoxyphenyl)-1,3-thiazol-5-yl]-2-methylbutanamide], the figure is 850 nM; as for `COc1cccc(-c2ncc(C(=O)NCCCNC#N)s2)c1` [Compound 5, N-[3-(cyanoamino)propyl]-2-(3-methoxyphenyl)-1,3-thiazole-5-carboxamide], 872 nM; as for `COc1cccc(-c2ncc(NC(=O)[C@@H](C)CCNC#N)s2)c1` [Compound 6, (2S)-4-(cyanoamino)-N-[2-(3-methoxyphenyl)-1,3-thiazol-5-yl]-2-methylbutanamide], 951 nM.

Consider `N#CNC1C[C@@]12CCN(C(=O)c1csc(-c3ccc(Cl)cc3Cl)n1)C2` (some centres unmarked) [Compound 7], for which the IC50 was determined as 1060 nM. In the case of `Cn1cc(-c2ccc(-c3cc(NC(=O)CCCNC#N)on3)cc2)cn1` [Compound 8, 4-(cyanoamino)-N-[3-[4-(1-methylpyrazol-4-yl)phenyl]-1,2-oxazol-5-yl]butanamide], the half-maximal inhibitory concentration (IC50) turned out to be 1060 nM. To `N#CNCCCC(=O)Nc1cnc(-c2ccccc2Oc2ccccc2)s1` [Compound 9, 4-(cyanoamino)-N-[2-(2-phenoxyphenyl)-1,3-thiazol-5-yl]butanamide] belongs 1130 nM. As for `COc1ccccc1-c1ncc(NC(=O)CCCNC#N)s1` [Compound 10, 4-(cyanoamino)-N-[2-(2-methoxyphenyl)-1,3-thiazol-5-yl]butanamide], the figure is 1160 nM; as for `N#CNC[C@H]1CCN(C(=O)c2csc(-c3ccc(Cl)cc3Cl)n2)C1` [Compound 11], 1160 nM. For `COc1ccccc1-c1nc(C(=O)N2CC[C@@H](CNC#N)C2)cs1` [Compound 12, cyano([[(3S)-1-[2-(2-methoxyphenyl)-1,3-thiazole-4-carbonyl]pyrrolidin-3-yl]methyl])amine], the IC50 came out at 1250 nM. For the molecule `Cn1cc(-c2ccc(-c3cc(C(=O)N4CCC5(CC(NC#N)C5)C4)on3)cc2)cn1` (centres unmarked) [Compound 13, [(6-[3-[4-(1-methyl-1H-pyrazol-4-yl)phenyl]-1,2-oxazole-5-carbonyl]-6-azaspiro[3.4]octan-2-yl)amino]formonitrile], the IC50 was determined as 1260 nM. Regarding `COc1ccccc1-c1nc(C(=O)N2CC[C@H](CNC#N)C2)cs1` [Compound 14, cyano([[(3R)-1-[2-(2-methoxyphenyl)-1,3-thiazole-4-carbonyl]pyrrolidin-3-yl]methyl])amine], the 50% inhibitory concentration (IC50) came to 1280 nM. For the molecule `Cn1cc(-c2ccc(-c3cc(NC(=O)CCNC#N)on3)cc2)cn1` [Compound 15, 3-(cyanoamino)-N-[3-[4-(1-methylpyrazol-4-yl)phenyl]-1,2-oxazol-5-yl]propanamide], the IC50 was 1390 nM. As for `N#CNC[C@H]1C[C@H](NC(=O)c2cnc(-c3ccccc3)s2)C1` [Compound 16, 2-phenyl-N-[(trans)-3-[(cyanoamino)methyl]cyclobutyl]-1,3-thiazole-5-carboxamide], the figure is 1580 nM. As for `N#CNCC12CC1CN(C(=O)c1csc(-c3ccc(Cl)cc3Cl)n1)C2` (centres unmarked) [Compound 17], the figure is 1600 nM; as for `C[C@H](CNC#N)C(=O)Nc1cc(-c2ccc(-c3cnn(C)c3)cc2)no1` [Compound 18, (2R)-3-(cyanoamino)-2-methyl-N-[3-[4-(1-methylpyrazol-4-yl)phenyl]-1,2-oxazol-5-yl]propanamide], 1660 nM; as for `C[C@@H](CNC#N)C(=O)Nc1cc(-c2ccc(-c3cnn(C)c3)cc2)no1` [Compound 19, (2S)-3-(cyanoamino)-2-methyl-N-[3-[4-(1-methylpyrazol-4-yl)phenyl]-1,2-oxazol-5-yl]propanamide], 2590 nM. To `COc1cccc(-c2cc(C(=O)N3CC4CC4(CNC#N)C3)on2)c1` (centres unmarked) [Compound 22] belongs 3400 nM. `N#CNC[C@H]1CN(C(=O)c2csc(-c3ccc(Cl)cc3Cl)n2)CCO1` [Compound 24, Cyano({[(2S)-4-[2-(2,4-dichlorophenyl)-1,3-thiazole-4-carbonyl]morpholin-2-yl]methyl})amine]: the IC50 came to 4000 nM. As for `N#CN[C@H]1[C@@H]2CN(C(=O)c3nc(-c4ccccc4)cs3)C[C@@H]21` [Compound 25], the figure is 4410 nM; as for `N#CN[C@H]1[C@@H]2CN(C(=O)c3csc(-c4ccc(Cl)cc4Cl)n3)C[C@@H]21` [Compound 26], 4530 nM; as for `N#CNCC1CN(C(=O)c2csc(-c3ccc(Cl)cc3Cl)n2)C1` [Compound 29], 5160 nM. To `COc1ccc(-c2cc(C(=O)N3CC4CC4(CNC#N)C3)on2)cc1` (centres unmarked) [Compound 31] belongs 5210 nM; to `N#CNC[C@@H]1CCCN(C(=O)c2csc(-c3ccc(Cl)cc3Cl)n2)C1` [Compound 32], 5270 nM. Consider `COc1ccc(-c2cc(C(=O)N3CC[C@@]4(CC4NC#N)C3)on2)cc1` (some centres unmarked) [Compound 34], for which the IC50 turned out to be 5660 nM. To `N#CNC1C[C@@]12CCN(C(=O)c1nc(-c3ccccc3)cs1)C2` (some centres unmarked) [Compound 36] belongs 6510 nM. To `COc1cccc(-c2cc(C(=O)N3CC[C@@]4(CC4NC#N)C3)on2)c1` (some centres unmarked) [Compound 38] belongs 520 nM; to `N#CNC[C@H]1CCCN1C(=O)c1csc(-c2ccc(Cl)cc2Cl)n1` [Compound 39], 6620 nM. To `N#CN[C@H]1CC[C@@H](NC(=O)c2cccc(Oc3ccccc3)c2)C1` [Compound 40] belongs 7290 nM. In the case of `COc1ccc(-c2cc(C(=O)N(C)CCCNC#N)on2)cc1` [Compound 41], the IC50 stood at 7750 nM. To `COc1cccc(-c2ncc(NC(=O)[C@H](C)CNC#N)s2)c1` [Compound 43, (2R)-3-(cyanoamino)-N-[2-(3-methoxyphenyl)-1,3-thiazol-5-yl]-2-methylpropanamide] belongs 7880 nM; to `N#CNC1CC2(CCN(C(=O)c3csc(-c4ccc(Cl)cc4Cl)n3)CC2)C1` [Compound 44], 8000 nM; to `N#CNC[C@H]1CCN(C(=O)c2nc(-c3ccccc3)cs2)C1` [Compound 46], 8470 nM.

For `CN(CCCNC#N)C(=O)c1nc(-c2ccccc2)cs1` [Compound 48], the IC50 is 8740 nM.

Usually IC50 stands for the point on the concentration scale where inhibition reaches its midpoint.
